Experimental findings from patent US9493464B2, “Wee1 degradation inhibitors” (The Scripps Research Institute, priority 2012, dated 2016) are described below.

The IC50 is the concentration needed to halve the response being measured. One may read the GI50 as the concentration giving 50% growth inhibition.

One assay concerns K328M-Wee1-luciferase. Description: Wee1-luciferase assay (stabilization of K328M-Wee1-luciferase). The class given is cell-based. Conditions: HeLa cells; result in words. An excerpt:
Steady-state level of K328M-Wee1-Luciferase (K328M-Wee1-Luc) was divided by Luciferase level (Luc) and plotted.
(§1) Similar assays have previously been described; PubChem AID 1807.

For assay [1], the system named is cerebellar granule cell progenitors (GCPs). Kind of assay: In vitro proliferation of cerebellar granule cell progenitors (3H-thymidine uptake). The class given is cell-based, mouse. Conditions: 24 hours; result in words. The protocol: GCPs were incubated with DMSO, 5 μM D4476 (known CK1δ and CK1ε inhibitor), or 50 μM D4476 and processed for ^3H-thymidine incorporation after 24 hours. A representative experiment performed in triplicate is shown.

Another assay deals with Luciferase. Description: Luciferase alone control (PGL3 vector). The class given is cell-based. The settings on record: HeLa cells; result in words. The protocol: The percentage of signal relative to the proteasome inhibitor MG132 is shown. […] A Western blot is shown of endogenous Wee1 or Skp1 (loading control) of HeLa cells incubated with 5 μM of indicated compounds for 24 hours. […] The 0 time point was set to 100%. […] The extent of degradation was measured as in FIG. D.
5 μM of indicated compounds were incubated with K328M-Wee1-Luciferase or Luciferase expressing HeLa cells and the extent of stabilization measured after adding Brite-lite. MG132 was used as a positive control.
as §1

For another assay, the target named is T1, FLT3 (Homo sapiens, UniProt P36888).
T1 construct: Reaction Biology Corporation (contract assay)
T1 sequence (P36888 27-993): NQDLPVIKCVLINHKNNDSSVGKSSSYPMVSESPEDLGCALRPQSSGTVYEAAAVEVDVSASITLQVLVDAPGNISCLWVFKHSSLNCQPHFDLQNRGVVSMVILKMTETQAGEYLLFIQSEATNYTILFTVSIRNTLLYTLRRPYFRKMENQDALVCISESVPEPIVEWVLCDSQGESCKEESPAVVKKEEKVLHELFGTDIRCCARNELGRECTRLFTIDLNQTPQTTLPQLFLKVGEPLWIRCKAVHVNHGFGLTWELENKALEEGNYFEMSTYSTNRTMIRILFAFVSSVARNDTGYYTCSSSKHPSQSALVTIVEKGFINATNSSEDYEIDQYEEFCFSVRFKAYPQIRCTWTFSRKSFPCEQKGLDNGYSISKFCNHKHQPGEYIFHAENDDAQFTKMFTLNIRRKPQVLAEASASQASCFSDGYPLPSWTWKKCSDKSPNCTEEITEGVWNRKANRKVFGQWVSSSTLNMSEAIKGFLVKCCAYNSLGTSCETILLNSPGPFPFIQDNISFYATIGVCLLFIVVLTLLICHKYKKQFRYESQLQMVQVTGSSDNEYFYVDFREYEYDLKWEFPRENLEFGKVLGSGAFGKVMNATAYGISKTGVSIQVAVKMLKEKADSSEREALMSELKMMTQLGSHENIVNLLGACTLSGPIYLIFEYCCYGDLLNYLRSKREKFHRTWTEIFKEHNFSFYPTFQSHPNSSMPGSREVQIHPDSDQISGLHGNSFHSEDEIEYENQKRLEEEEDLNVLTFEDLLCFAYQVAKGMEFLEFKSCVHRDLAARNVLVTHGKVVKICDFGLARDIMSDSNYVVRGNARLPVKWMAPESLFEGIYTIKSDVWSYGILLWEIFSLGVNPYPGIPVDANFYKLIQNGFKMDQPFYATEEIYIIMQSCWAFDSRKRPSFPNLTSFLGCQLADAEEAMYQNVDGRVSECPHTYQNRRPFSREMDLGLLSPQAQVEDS
Kind of assay: In vitro kinase assay, FLT3 (Reaction Biology Corporation). Conditions: determined by Reaction Biology Corporation; read-out: IC50 FLT3. The format is biochemical. Here is the method: (§2) Compounds were tested in 10-dose IC50 mode with 3-fold serial dilution starting at 50 μM. […] Reactions were carried out at 10 μM ATP. Average and standard deviations of reactions carried out in triplicate are shown.
(§3) In vitro kinase assay to detect CK1 or FLT3 activity: CK1 and FLT3 assays as well as complete kinase profile of 296 kinases was performed by Reaction Biology Corporation. For FLT3 20 μM final Abltide was used, sequence: [[…]]. For CK1 (all isoforms) 20 μM CK1 tide was used, sequence: [KRRRAL[pS]VASLPGL] in a standard kinase assay with ^32P-ATP and purified kinase. Incorporation of ^32P-ATP into the peptide was measured after a filter-binding assay. In-house CK1d inhibition assays were performed using a standard homogenous time-resolved fluorescence resonance energy transfer (TR-FRET) format in 50 mM Hepes, pH 7.0, 2.5 mM MgCl2, 0.1 mg/ml bovine serum albumin, 1 mM DL-dithiothreitol, 0.01% Triton X-100 (all from Sigma-Aldrich). Briefly, the CK1δ substrate (DEKTDDE, containing CK1 consensus sequence; 4 μL of a 500 nM stock solution) is labeled with a small Ulight acceptor dye (PerkinElmer). In the presence of 10 μL of 10 nM CK1δ, the Ulight peptide is phosphorylated at a single amino acid that is specifically recognized by a europium chelate (Eu)-labeled phosphospecific antibody. Assays were performed in the presence of 2 μL of compound at different (measured) concentrations, and reactions were stopped by adding 10 μL of 4 nM Eu-anti-p-Topo-IIa (PerkinElmer) in Lance Detection Buffer (Perkin Elmer). Upon excitation of the Eu-labeled antibody, energy is transferred to the acceptor dye resulting in the emission of detected light at 665 nm.

The next assay concerns the target CK1δ (Homo sapiens, UniProt P48730). Description: In vitro kinase assay, CK1d, 32P-ATP filter binding (Reaction Biology Corporation). The class given is biochemical. Conditions: footnote a: determined by Reaction Biology Corporation; read-out: IC50 CK1d. Here is the method:
as §2, §3

The test system of the next assay is A498 (renal). Description: NCI Dose Growth Inhibition assay (NCI-60). The format is cell-based. The settings on record: Homo sapiens; A498 (renal); read-out: GI50. Here is the method: (§4) Table 3, below, illustrates the activity of some of the compounds of the present invention in the National Cancer Institute's Dose Growth Inhibition assay against several human tumor cell lines selected from the NCI-60 panel.
(§5) NCI-60 Cancer Cell Line Screening was performed by the National Cancer Institute, using the procedures described on their website (http://dtp.nci.nih.gov/branches/btb/ivelsp.html)

The subject of a further assay is COLO 205 (colon). Kind of assay: NCI Dose Growth Inhibition assay (NCI-60). The format is cell-based. Conditions: Homo sapiens; COLO 205 (colon); read-out: GI50. Here is the method: as §4, §5
For the next assay, the system named is MDA-MB-468 (breast). Description: NCI Dose Growth Inhibition assay (NCI-60). The format is cell-based. Conditions: Homo sapiens; MDA-MB-468 (breast); read-out: GI50. The protocol: as §4, §5
The subject of the next assay is RXF393 (renal). Kind of assay: NCI Dose Growth Inhibition assay (NCI-60). The format is cell-based. The settings on record: Homo sapiens, RXF 393; RXF393 (renal); read-out: GI50. Here is the method:
as §4, §5

In another assay the test system is SNB-75 (CNS). Kind of assay: NCI Dose Growth Inhibition assay (NCI-60). The class given is cell-based. Conditions: Homo sapiens; SNB-75 (CNS); read-out: GI50. Here is the method: as §4, §5
Another assay concerns UACC-62 (melanoma). Kind of assay: NCI Dose Growth Inhibition assay (NCI-60). The format is cell-based. Conditions: Homo sapiens; UACC-62 (melanoma); read-out: GI50. Here is the method: as §4, §5

CK1δ, sequence (P48730 whole entry): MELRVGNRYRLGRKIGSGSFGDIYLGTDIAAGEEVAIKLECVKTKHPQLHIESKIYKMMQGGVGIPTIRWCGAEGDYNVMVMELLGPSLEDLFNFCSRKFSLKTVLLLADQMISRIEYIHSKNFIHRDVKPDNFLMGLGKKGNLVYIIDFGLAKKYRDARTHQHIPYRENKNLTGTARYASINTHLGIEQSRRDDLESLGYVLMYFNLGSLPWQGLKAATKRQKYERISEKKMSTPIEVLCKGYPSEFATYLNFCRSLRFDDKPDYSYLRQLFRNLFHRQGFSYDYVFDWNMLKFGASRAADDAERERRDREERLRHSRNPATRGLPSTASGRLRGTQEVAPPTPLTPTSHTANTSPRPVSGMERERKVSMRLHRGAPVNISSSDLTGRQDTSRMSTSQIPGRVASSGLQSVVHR

Take `NC(=O)c1ccc(-c2nc(-c3ccc4c(c3)OCCO4)c(-c3ccccn3)[nH]2)cc1` [Compound D4476, reference compound]: the “stabilization of K328M-Wee1-luciferase” value in the assay on K328M-Wee1-luciferase was “stabilizes K328M-Wee1-luciferase”. For the same compound, the “inhibition of GCP proliferation (3H-thymidine)” value in [1] is given as “inhibited GCP proliferation”. Also, the Luciferase levels result in the assay on Luciferase is recorded as “does not affect Luciferase levels”.
Turning to `COc1ccc2[nH]c(CNc3nc(N4CCNCC4)nc4c3ncn4-c3ccoc3)nc2c1` [SR-2891], the IC50 at FLT3 amounted to 782 nM; on CK1δ, 11 nM. The GI50 was 321 nM in the assay with A498 (renal); 30 nM in the assay on COLO 205 (colon); < 10 nM with MDA-MB-468 (breast); 49 nM with RXF393 (renal); 24 nM in the assay with SNB-75 (CNS); 174 nM with UACC-62 (melanoma).
